# How the values were obtained:
# [1] = system: Ovarian cell lines (especially OVCAR-3); assay: Human Tumor Cell Panel Assay in vitro, ovarian panel; type: cell-based; parameters: key: Most sensitive cell panes are marked with ✓
# From the text: (§1) The tubulin activities, breast cancer cell line activities, and the cell panels most sensitive to selected analogs are shown in Tables 3 and 4.
# [2] = system: Melanoma cell lines; assay: Human Tumor Cell Panel Assay in vitro, melanoma panel; type: cell-based; parameters: key: Most sensitive cell panes are marked with ✓
# From the text: as §1
# [3] = system: Renal cell lines; assay: Human Tumor Cell Panel Assay in vitro, renal panel; type: cell-based; parameters: key: Most sensitive cell panes are marked with ✓
# From the text: as §1
# [4] = system: 8 human breast cancer cell lines; assay: human tumor cell panel assay in vitro, breast panel; type: cell-based; parameters: key to Most Sensitive Cell Lines in Human Tumor Cell Panel Assay: Breast: Most sensitive cell panes are marked with ✓; conditions: for Most Sensitive Cell Lines in Human Tumor Cell Panel Assay: Breast: 8 cell lines, only MCF-7 and T-47D express estrogen and progesterone receptors; for IC50: Homo sapiens, read-out: Tumor Panel: Average log IC50(Molar) against 8 human breast cancer cell lines (converted); for IC50 / Tumor Panel: Average log IC50(Molar) against 8 human breast cancer cell lines: cell panel assay in vitro, two values per cell separated by /
# From the text: as §1
# [5] = system: tubulin; assay: tubulin activities of 2-ME analogs (Table 3); type: biochemical
# [6] = system: CNS cell lines; assay: Human Tumor Cell Panel Assay in vitro, CNS panel; type: cell-based; parameters: key: Most sensitive cell panes are marked with ✓
# From the text: as §1
# [7] = system: tubulin; assay: inhibition of tubulin polymerization in vitro (turbidity at 350 nm); type: biochemical; conditions: read-out: IC50 (concentration required to inhibit tubulin polymerization by 50%); mean ± S.D.; method of Example 1
# Procedure: Anti-mitotic activity can be evaluated by testing the ability of an estradiol derivative to inhibit tubulin polymerization and microtubule assembly in vitro. Microtubule assembly is followed in a Gilford recording spectrophotometer (model 250 or 2400S) equipped with electronic temperature controllers. A reaction mixture (all concentrations refer to a final reaction volume of […]) contains 1.0 M monosodium glutamate (ph 6.6), 1. omg/ml (10 μM) tubulin, 1.0 mM MgCl2, 4% (v/v) dimethylsulfoxide and 20-75μM of a composition to be tested. The 0.24 ml reaction mixtures are incubated for 15 min. at 37° C. and then chilled on ice. After addition of 10p1 2.5mM GTP, the reaction mixture is transferred to a cuvette at 0° C., and a baseline established. At time zero, the temperature controller of the spectrophotometer is set at 37° C. Microtubule assembly is evaluated by increased turbity at 350 nm.
# A. Each reaction mixture (all concentrations refer to the final reaction volume of 0.25 ml) contained 1.0 M monosodium glutamate (pH 6.6), 1.0 mg/ml (10 μM) tubulin, 1.0 mM MgCl2, 4% (v/v) dimethylsulfoxide, and either 0 (curve 1), 20μM (curve 2), 40 μM (curve 3), or 75 μM (curve 4) 2-methoxyestradiol. The 0.24 ml reaction mixtures were incubated for 15 min. at 37° C and chilled on ice. After addition of 10 μl of 2.5 mM GTP the reaction mixtures were transferred to cuvettes held at 0° C., and baselines were established. At time zero the temperature controller was set at 37° C. At the times indicated by the vertical dashed lines the temperature controller was set at the indicated temperatures.
# B. Each reaction mixture contained 0.8 M monosodium glutamate (pH 6.6), 1.2 mg/ml (12 μM) tubulin, 4% (v/v) dimethylsulfoxide, and either 0 (curve 1), 1.0 FM (curve 2), 2.0 ,M (curve 3), 3.0 μM (curve 4), or 4.0 μM (curve 5) 2-methoxyestradiol. The 0.24 ml reaction mixtures were incubated for 15 min. at 26° C. and chilled on ice. After addition of 10μl of 10 mM GTP the reaction mixtures were transferred to cuvettes held at 0° C., and baselines were established. At time zero the temperature controller was set at 26° C. At the time indicated by vertical dashed line the temperature controller was set at 0° C.
# The method is given in Example 1.
# S.D., standard deviation.
# [8] = system: MDA-MB-435 estrogen receptor-negative human breast carcinoma cells; assay: In Vivo Tumor Growth Inhibition; parameters: species or system SCID mice
# Procedure: To determine the antitumor activity of 2-ME and derivatives, SCID mice were s.c. inoculated with 10^6 MDA-MB-435 estrogen receptor-negative human breast carcinoma cells. Treatment was initiated on day 12 when tumor volumes reached 75-100 mm3 in volume. Drugs were suspended in 0.5 g/100 ml of carboxymethylcellulose with sterile glass beads, vortexed for 5 minutes, and administered p.o. in a volume of 0.1 ml. Control mice received 0.1 ml of carboxymethylcellulose p.o. Serial caliper measurements of perpendicular diameters were used to calculate tumor volume using the following: (shortest diameter)^2×(longest diameter)×0.52. T/C was calculated as the volume of treated tumors over the volume of control tumors. A smaller number indicates a greater inhibition of tumor growth.
# [9] = system: corneal neovascularization; assay: Mouse Corneal Micropocket Assay; type: in vivo, mice; conditions: daily oral, 5 days
# Procedure: Five- to 7-week-old SCID female mice were obtained from Massachusetts General Hospital (Boston, Mass.), Immunocompetent 7-9-week-old female C57BL/6 mice were obtained from ARCH Technical Services, Children's Hospital (Boston, Mass.). All animal studies were conducted according to protocols approved by the Animal Ethics Committee of Children's Hospital. Animals were anesthetized in a methoxyflurane (Pittman-Moore, Mundelein, Ill.) chamber prior to all procedures and were observed until fully recovered. Animals were sacrificed by a lethal dose of methoxyflurane.
# Mouse Corneal Micropocket Assay To study the effect of microtubule inhibitors on angiogenesis in vivo, a model of angiogenesis in the mouse cornea was used in […] mice as described previously (Kenyon, B. B., Voest, E. E., Chen, C. C., Folkman, J., and D'Amato, R. J. A model of angiogenesis in the mouse cornea. Invest. Ophthalmol. & Visual Sci., 76: 1625-1632, 1996). In brief, after animals were anesthetized, corneal micropockets were created in both eyes with a modified von Graefe cataract knife. Into each pocket, a 0.4 mm ×0.4 mm×0.2 mm sucrose aluminum sulfate (Bukh Meditee, Copenhagen, Denmark) pellet coated with hydron polymer type NCC (IHN Sciences, New Brunswick, N.J.) containing 80 ng of bFGF or 160 ng of human recombinant […] (gift from Reprogenesis, Cambridge, Mass.) was implanted 1.0-1.2 mm from the limbal vessels (bFGF experiments) or 0.5-0.7 mm from the limbus (VEGF experiments). Erythromycin ointment (E. Fougera, Melville, N.Y.) was applied to each operated eye. The sucralfate acts to stabilize the growth factor and to slow its release from the hydron. Before testing each drug in this assay, we found the maximal dose that could be administered daily for 5 consecutive days without producing signs of toxicity (i.e., no hair loss, diarrhea, infection, lethargy, or weight loss). The treated groups received daily oral administration for 5 consecutive days of the stated dosage of 2-ME or a derivative thereof suspended in 0.5 g/100 ml of carboxymethylcellulose.
# Treatment was started on the day of pellet implantation. […] For this purpose, the eyes of the mice were examined by slit-lamp biomicroscopy. Area of corneal neovascularization was calculated using a modified formula for a half-ellipse: Area (mm^2)=[π×clock hours×length (mm)×0.2 mm]. This formula provides the most accurate approximation of the area of neovascularization that grows toward the pellet. (Kenyon, B. B., Voest, E. E., Chen, C. C., Folkman, J., and D'Amato, R. J. A model of angiogenesis in the mouse cornea. Invest. Ophthalmol. & Visual Sci., 76: 1625-1632, 1996).
# [10] = 150 mg/kg p.o., duration not stated
SMILES,Most Sensitive Cell Lines in Human Tumor Cell Panel Assay: Ovarian [1],Most Sensitive Cell Lines in Human Tumor Cell Panel Assay: Breast [4],IC50 [5] [µM],Most Sensitive Cell Lines in Human Tumor Cell Panel Assay: CNS [6],IC50 [7] [µM],also measured
C=Cc1cc2c(cc1O)CCC1C2CCC2(C)C(O)CCC12 (stereo not drawn) [NSC 667049],✓,✓,5.2 ± 1,✓,–,Most Sensitive Cell Lines in Human Tumor Cell Panel Assay: Melanoma [2]: ✓; Most Sensitive Cell Lines in Human Tumor Cell Panel Assay: Renal [3]: ✓; IC50 [4]: 2.51 µM
COc1cc2c(cc1OC)C1CCC3(C)C(O)CCC3C1CC2 (stereo not drawn) [2-Methoxyestradiol-3-0-methyl ether],–,–,–,–,> 40,–
COc1cc2c(cc1O)CCC1C2CCC2(C)C(O)C(O)CC12 (stereo not drawn) [2-Methoxyestriol],–,–,–,–,> 40,–
COc1ccc2c(c1)CCC1C2CCC2(C)C(O)CCC12 (stereo not drawn) [Estradiol-3-0-methyl ether],–,–,–,–,> 40,–
CC12CCC3c4cc(F)c(O)cc4CCC3C1CCC2O (stereo not drawn) [2-Fluoroestradiol],–,–,–,–,27 ± 6,–
CCOc1cc2c(cc1O)C(=O)CC1C2CCC2(C)C(O)CCC12 (stereo not drawn) [NSC 679431],✓,✓,4.8,✓,–,"T/C (volume of treated tumors over volume of control tumors) [8, 10]: 0.9; Most Sensitive Cell Lines in Human Tumor Cell Panel Assay: Melanoma [2]: ✓; Most Sensitive Cell Lines in Human Tumor Cell Panel Assay: Renal [3]: ✓"
CC12CCC3c4cc(OCC(F)(F)F)c(O)cc4CCC3C1CCC2O (stereo not drawn) [NSC 678473],–,–,1.7,–,–,IC50 [4]: 0.794 µM; Tumor Panel: Average log IC50(Molar) against 8 human breast cancer cell lines [4]: −5.8 log Molar
CC=Cc1cc2c(cc1O)CCC1C2CCC2(C)C(O)CCC12 (stereo not drawn) [NSC 667047],✓,✓,1.2 ± 0.1,✓,–,T/C (volume of treated tumors over volume of control tumors) ([8]; 29 days at 75 mg/kg p.o.): 0.40; Most Sensitive Cell Lines in Human Tumor Cell Panel Assay: Melanoma [2]: ✓; Most Sensitive Cell Lines in Human Tumor Cell Panel Assay: Renal [3]: ✓; IC50 [4]: 0.1 µM; Tumor Panel: Average log IC50(Molar) against 8 human breast cancer cell lines [4]: −6.9 log Molar
CC#Cc1cc2c(cc1O)CCC1C2CCC2(C)C(O)CCC12 (stereo not drawn) [NSC 682429],✓,✓,2.2,✓,–,"T/C (volume of treated tumors over volume of control tumors) ([8]; 44 days at 225 mg/kg p.o.): 0.25; tumor growth inhibition, comparison in words (FIG. 4) ([8]; FIG. 4): most effective tumor inhibiting compound tested; inhibition in corneal pocket assay ([9]; 300 mg/kg): 34%"
CC12CCC3c4cc(Br)c(O)cc4CCC3C1CCC2O (stereo not drawn) [2-Bromoestradiol],–,–,–,–,4.5 ± 0.6,–
CCOc1cc2c(cc1O)CCC1C2CCC2(C)C(O)CCC12 (stereo not drawn) [NSC 671043],✓,✓,–,✓,–,"T/C (volume of treated tumors over volume of control tumors) [8, 10]: 0.9; IC50 [4]: 0.0316 µM; Tumor Panel: Average log IC50(Molar) against 8 human breast cancer cell lines [4]: −7.7 log Molar"
COc1c(O)ccc2c1CCC1C2CCC2(C)C(O)CCC12 (stereo not drawn) [4-Methoxyestradiol],–,–,–,–,> 40,–
COc1ccc2c(c1OC)CCC1C2CCC2(C)C(O)CCC12 (stereo not drawn) [4-Methoxyestradiol-3-0-methyl ether],–,–,–,–,> 40,–
C#CC1(O)CCC2C3CCc4cc(O)c(OC)cc4C3CCC21C (stereo not drawn) [2-Methoxy-17-ethynylestradiol],–,–,–,–,> 40,–
C[C@]12CC[C@@H]3c4cc(OCC(F)(F)F)c(O)cc4C(=O)C[C@H]3[C@@H]1CC[C@@H]2O [NSC 681684],–,–,6,–,–,inhibition in corneal pocket assay ([9]; 225 mg/kg): 36%; Tumor Panel: Average log IC50(Molar) against 8 human breast cancer cell lines [4]: −5.06 log Molar
CCOc1cc2c(cc1O)C(O)C[C@@H]1[C@@H]2CC[C@]2(C)[C@@H](O)CC[C@@H]12 (stereo partly drawn) [NSC 683688],✓,✓,–,✓,–,Most Sensitive Cell Lines in Human Tumor Cell Panel Assay: Melanoma [2]: ✓; Most Sensitive Cell Lines in Human Tumor Cell Panel Assay: Renal [3]: ✓; Tumor Panel: Average log IC50(Molar) against 8 human breast cancer cell lines [4]: −6.3 log Molar
COc1ccc(CCc2cc(OC)c(OC)c(OC)c2)cc1O [Dihydrocombretastatin A-4],–,–,–,–,0.63 ± 0.03,–
CC(=O)Nc1cc2c(cc1O)CCC1C2CCC2(C)C(O)CCC12 (stereo not drawn) [NSC 673651],–,–,–,–,–,IC50 [4]: 30.9 µM; Tubulin IC50 [5]: weak
C[C@]12CC[C@@H]3c4ccc(O)cc4CC[C@H]3[C@@H]1C[C@@H](O)[C@@H]2O [Estriol],–,–,–,–,> 40,–
